Paper PMC8708872, “Discovery of a Novel Template, 7-Substituted 7-Deaza-4′-Thioadenosine Derivatives as Multi-Kinase Inhibitors” (Pharmaceuticals, 2021)

Legend:
[1] = tested on: ACHN; experiment: Antiproliferative activity against ACHN; assay type: cell-based; settings: Homo sapiens, renal cancer cell line expressing CK1δ and DYRK2, read-out: IC50 cell growth of ACHN
[2] = Metabolic stability in human liver microsomes; assay type: in vitro ADME; settings: % remaining during 30 min, 1 μM
[3] = target: T1, TRKA (Homo sapiens, UniProt P04629); experiment: Kinase inhibition profile, KINOMEscan 11-point dose response; assay type: binding
T1 construct: purchased Eurofins DiscoverX Corporation
T1 sequence (P04629 33-796): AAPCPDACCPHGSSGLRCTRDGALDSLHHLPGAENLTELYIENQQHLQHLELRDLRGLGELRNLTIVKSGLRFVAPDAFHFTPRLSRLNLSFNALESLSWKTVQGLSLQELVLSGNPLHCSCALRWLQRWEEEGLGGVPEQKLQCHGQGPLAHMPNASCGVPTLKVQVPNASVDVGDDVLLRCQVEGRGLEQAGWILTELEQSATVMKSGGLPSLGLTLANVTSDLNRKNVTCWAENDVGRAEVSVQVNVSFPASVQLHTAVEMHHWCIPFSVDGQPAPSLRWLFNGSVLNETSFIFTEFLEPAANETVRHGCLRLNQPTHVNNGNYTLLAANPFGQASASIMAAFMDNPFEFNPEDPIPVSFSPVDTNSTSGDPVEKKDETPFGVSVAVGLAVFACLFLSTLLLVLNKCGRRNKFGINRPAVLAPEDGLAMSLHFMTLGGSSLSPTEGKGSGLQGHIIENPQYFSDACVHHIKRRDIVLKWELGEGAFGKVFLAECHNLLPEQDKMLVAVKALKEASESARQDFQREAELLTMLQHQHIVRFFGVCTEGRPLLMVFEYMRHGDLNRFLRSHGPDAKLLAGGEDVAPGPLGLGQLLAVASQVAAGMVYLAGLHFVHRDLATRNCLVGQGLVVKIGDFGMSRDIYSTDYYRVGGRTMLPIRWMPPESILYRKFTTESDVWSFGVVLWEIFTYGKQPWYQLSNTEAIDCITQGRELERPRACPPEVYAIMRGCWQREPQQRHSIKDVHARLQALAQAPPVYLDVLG

[4] = tested on: PC-3; experiment: SRB cell proliferation inhibition assay; assay type: cell-based; settings: human prostate cancer cells, 72 h
Procedure: (§1) Human lung cancer cells (A549), colorectal cancer (HCT116) cells, breast cancer cells (MDA-MB-231), liver cancer cells (SK-HEP-1), and prostate cancer cells (PC-3) were purchased from the American Type Culture Collection (Manassas, VA, USA). Human gastric cancer cells (SNU-638) were purchased from the Korean Cell Line Bank (Seoul, Korea). Cells were cultured in medium (Dulbecco’s modified Eagle’s medium for MDA-MB-231 and SK-HEP-1 cells; Roswell Park Memorial Institute 1640 for A549, HCT116, SNU-638, PC-3 cells) supplemented with penicillin-streptomycin and 10% fetal bovine serum at 37 °C in a humidified incubator with 5% carbon dioxide. Cells were seeded at a density of 4–7 × 10^4 cells/mL in 96-well culture plates, and then treated with indicated compounds for 72 h. At the end of the experiment, cells were fixed with 10% trichloroacetic acid (TCA) solution and subjected to sulforhodamine B (SRB) assay to determine cell proliferation. The percentage of cell proliferation was calculated with the following formula:Cell proliferation (%) = 100 × [(A treated − A zero day)/(A control − A zero day)], where A is the average absorbance. The IC50 values were calculated through non-linear regression analysis using TableCurve 2D v5.01 (Systat Software Inc., San Jose, CA, USA). All experiments were performed in triplicate and data shown are representative of two or three independent experiments.

[5] = tested on: HCT116; experiment: SRB cell proliferation inhibition assay; assay type: cell-based; settings: HCT-116, human colon cancer cells, 72 h
Procedure: as §1

[6] = tested on: SK-HEP-1; experiment: SRB cell proliferation inhibition assay; assay type: cell-based; settings: SK-HEP1, human liver cancer cells, 72 h
Procedure: as §1

[7] = tested on: A549; experiment: SRB cell proliferation inhibition assay; assay type: cell-based; settings: human lung cancer cells, 72 h
Procedure: as §1

[8] = tested on: MDA-MB-231; experiment: SRB cell proliferation inhibition assay; assay type: cell-based; settings: human breast cancer cells, 72 h
Procedure: as §1

[9] = tested on: SNU638; experiment: SRB cell proliferation inhibition assay; assay type: cell-based; settings: SNU-638, human stomach cancer cells, 72 h
Procedure: as §1

[10] = target: T2, CYP3A4 (Homo sapiens, UniProt P08684); experiment: CYP inhibition assay; assay type: in vitro ADME; settings: human liver microsomes
T2 construct: Human liver microsomes (0.25 mg/mL); from tissue; host or cells: human liver microsomes

[11] = target: T3, MAP3K4 (Homo sapiens, UniProt Q9Y6R4); experiment: Kinome scan; assay type: binding; settings: 1000 nM
T3 construct: purchased Eurofins DiscoverX Corporation
Procedure: (§2) The kinome scan assays were carried out at Eurofins DiscoverX Corporation. For kinome scan profiling of compound 1g, it was screened at 1μM against 96 kinases (N = 2 independent experiments). The results for binding interactions are reported as % inhibition, where higher values indicate strong affinity; see the Supporting Information, Table S1 for full kinome profile.

[12] = target: T4, CSNK1G2 (Homo sapiens, UniProt P78368); experiment: Kinome scan; assay type: binding; settings: 1000 nM
T4 construct: purchased Eurofins DiscoverX Corporation
T4 sequence (P78368 whole entry): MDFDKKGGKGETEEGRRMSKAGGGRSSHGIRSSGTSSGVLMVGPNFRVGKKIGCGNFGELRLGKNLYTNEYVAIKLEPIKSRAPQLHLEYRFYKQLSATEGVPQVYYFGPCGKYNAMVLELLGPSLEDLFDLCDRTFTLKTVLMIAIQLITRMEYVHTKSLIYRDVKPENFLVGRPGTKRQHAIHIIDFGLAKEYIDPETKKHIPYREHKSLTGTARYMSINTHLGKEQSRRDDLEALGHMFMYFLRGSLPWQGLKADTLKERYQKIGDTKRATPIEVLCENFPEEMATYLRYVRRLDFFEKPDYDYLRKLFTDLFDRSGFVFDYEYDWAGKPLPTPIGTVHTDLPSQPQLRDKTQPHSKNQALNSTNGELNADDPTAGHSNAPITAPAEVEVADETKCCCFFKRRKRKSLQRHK
Procedure: as §2

[13] = target: T5, SRC (Homo sapiens, UniProt P12931); experiment: Kinome scan; assay type: binding; settings: 1000 nM
T5 construct: purchased Eurofins DiscoverX Corporation
Procedure: as §2

[14] = target: T6, PAK1 (Homo sapiens, UniProt Q13153); experiment: Kinome scan; assay type: binding; settings: 1000 nM
T6 construct: purchased Eurofins DiscoverX Corporation
T6 sequence (Q13153 whole entry): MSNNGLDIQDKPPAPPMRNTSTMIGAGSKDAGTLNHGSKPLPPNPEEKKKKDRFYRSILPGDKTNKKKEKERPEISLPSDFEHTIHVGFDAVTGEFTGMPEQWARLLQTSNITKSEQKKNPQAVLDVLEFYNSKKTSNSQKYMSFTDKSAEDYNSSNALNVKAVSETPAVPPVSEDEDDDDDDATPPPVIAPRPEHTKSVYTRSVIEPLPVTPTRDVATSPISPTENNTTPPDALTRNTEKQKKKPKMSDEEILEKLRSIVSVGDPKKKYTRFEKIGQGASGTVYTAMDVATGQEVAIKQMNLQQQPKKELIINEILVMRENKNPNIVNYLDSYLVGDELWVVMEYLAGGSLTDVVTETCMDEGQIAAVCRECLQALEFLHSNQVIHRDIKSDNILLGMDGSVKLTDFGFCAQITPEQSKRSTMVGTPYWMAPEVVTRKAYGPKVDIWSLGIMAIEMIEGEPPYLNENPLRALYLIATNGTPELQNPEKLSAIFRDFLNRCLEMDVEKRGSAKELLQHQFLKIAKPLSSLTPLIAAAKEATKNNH
Procedure: as §2

[15] = target: T7, JNK3 (Homo sapiens, UniProt P53779); experiment: Kinome scan; assay type: binding; settings: 1000 nM
T7 construct: purchased Eurofins DiscoverX Corporation
T7 sequence (P53779 whole entry): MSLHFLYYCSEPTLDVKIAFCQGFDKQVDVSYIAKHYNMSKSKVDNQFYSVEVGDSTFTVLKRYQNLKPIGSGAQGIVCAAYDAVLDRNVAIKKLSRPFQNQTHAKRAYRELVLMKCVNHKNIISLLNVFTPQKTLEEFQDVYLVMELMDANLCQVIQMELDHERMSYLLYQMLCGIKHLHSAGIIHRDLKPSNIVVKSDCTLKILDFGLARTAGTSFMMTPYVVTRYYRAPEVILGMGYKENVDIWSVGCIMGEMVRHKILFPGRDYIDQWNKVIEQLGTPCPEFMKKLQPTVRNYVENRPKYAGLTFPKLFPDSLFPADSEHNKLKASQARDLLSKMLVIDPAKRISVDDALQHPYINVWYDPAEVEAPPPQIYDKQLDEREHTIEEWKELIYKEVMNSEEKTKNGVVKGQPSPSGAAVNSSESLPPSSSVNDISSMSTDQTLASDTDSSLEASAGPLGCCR
Procedure: as §2

[16] = target: T8, CYP2D6 (Homo sapiens, UniProt P10635); experiment: CYP inhibition assay; assay type: in vitro ADME; settings: human liver microsomes
T8 construct: Human liver microsomes (0.25 mg/mL); from tissue; host or cells: human liver microsomes
T8 sequence (P10635 whole entry): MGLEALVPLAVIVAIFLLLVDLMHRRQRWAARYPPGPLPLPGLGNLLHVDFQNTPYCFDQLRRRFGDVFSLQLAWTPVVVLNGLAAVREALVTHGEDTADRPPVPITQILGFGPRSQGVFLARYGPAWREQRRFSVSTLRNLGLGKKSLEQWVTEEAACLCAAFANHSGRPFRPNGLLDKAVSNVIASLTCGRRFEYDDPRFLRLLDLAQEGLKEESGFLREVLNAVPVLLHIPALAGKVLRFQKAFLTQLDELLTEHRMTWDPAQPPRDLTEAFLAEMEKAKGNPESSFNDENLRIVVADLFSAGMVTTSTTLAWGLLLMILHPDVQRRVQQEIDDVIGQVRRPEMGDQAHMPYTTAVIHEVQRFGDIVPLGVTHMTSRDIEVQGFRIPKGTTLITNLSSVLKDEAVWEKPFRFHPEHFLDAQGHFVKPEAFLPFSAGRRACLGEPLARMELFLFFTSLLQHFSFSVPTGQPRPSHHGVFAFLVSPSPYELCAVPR

[17] = target: T9, DYRK1B (Homo sapiens, UniProt Q9Y463); experiment: Kinase inhibition profile, KINOMEscan 11-point dose response; assay type: binding
T9 construct: purchased Eurofins DiscoverX Corporation
T9 sequence (Q9Y463 whole entry): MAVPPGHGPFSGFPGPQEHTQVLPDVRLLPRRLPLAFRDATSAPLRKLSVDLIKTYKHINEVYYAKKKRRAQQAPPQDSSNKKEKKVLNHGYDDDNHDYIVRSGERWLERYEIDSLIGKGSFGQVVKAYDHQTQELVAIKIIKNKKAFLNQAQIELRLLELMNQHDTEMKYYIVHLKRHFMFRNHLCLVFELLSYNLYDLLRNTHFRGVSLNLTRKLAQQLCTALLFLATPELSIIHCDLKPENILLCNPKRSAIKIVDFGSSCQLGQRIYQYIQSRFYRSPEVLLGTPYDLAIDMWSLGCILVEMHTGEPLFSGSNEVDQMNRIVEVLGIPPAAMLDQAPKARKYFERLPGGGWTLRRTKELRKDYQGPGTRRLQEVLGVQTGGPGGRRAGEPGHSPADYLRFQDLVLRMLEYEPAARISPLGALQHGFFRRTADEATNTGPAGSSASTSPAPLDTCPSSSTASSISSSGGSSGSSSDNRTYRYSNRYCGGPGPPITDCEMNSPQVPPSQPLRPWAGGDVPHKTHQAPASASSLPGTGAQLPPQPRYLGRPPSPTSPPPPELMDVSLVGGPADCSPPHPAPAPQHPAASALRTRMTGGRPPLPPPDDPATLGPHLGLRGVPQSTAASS

[18] = tested on: KM12; experiment: Antiproliferative activity against KM12; assay type: cell-based; settings: Homo sapiens, colon cancer cell line highly expressing NTRK1/2/3 and DYRK3, read-out: IC50 cell growth of KM12
[19] = tested on: cancer cells; experiment: Antiproliferative activity against cancer cells (six lines, SRB); assay type: cell-based; settings: Homo sapiens; range over the six cancer cell lines of Table 1
Procedure: as §1

[20] = target: T10, CK1δ (Homo sapiens, UniProt P48730); experiment: Kinase inhibition profile, KINOMEscan 11-point dose response; assay type: binding
T10 construct: purchased Eurofins DiscoverX Corporation
T10 sequence (P48730 whole entry): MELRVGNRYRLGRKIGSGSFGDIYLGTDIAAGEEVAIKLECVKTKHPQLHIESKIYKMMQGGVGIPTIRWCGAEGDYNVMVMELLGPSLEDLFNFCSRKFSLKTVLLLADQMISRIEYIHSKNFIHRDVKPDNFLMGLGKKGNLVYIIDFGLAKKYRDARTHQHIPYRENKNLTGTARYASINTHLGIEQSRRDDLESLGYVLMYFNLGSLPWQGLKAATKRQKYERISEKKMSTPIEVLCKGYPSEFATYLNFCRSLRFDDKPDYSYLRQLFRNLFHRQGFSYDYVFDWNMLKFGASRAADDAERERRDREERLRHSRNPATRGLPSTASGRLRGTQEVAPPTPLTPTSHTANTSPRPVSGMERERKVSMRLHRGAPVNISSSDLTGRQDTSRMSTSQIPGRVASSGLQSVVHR

[21] = target: T11, CYP1A2 (Homo sapiens, UniProt P05177); experiment: CYP inhibition assay; assay type: in vitro ADME; settings: human liver microsomes
T11 construct: Human liver microsomes (0.25 mg/mL); from tissue; host or cells: human liver microsomes
Procedure: (§3) Human liver microsomes (0.25 mg/mL), 0.1 M phosphate buffer (pH 7.4), a cocktail of five […] substrates (Phenacetin 50 μM, Diclofenac 10 μM, S-mephenytoin 100 μM, Dextromethorphan 5 μM, Midazolam 2.5 μM), and test compound (10 μM concentration) was pre-incubated for 5 min at 37 °C. NADPH generation system solution was added and incubated for 15 min at 37 °C. In order to terminate the reaction, acetonitrile solution containing an internal standard (Terfenadine) was added and centrifuged for 5 min (14,000× g […], 4 °C). The supernatant was injected into the LC-MS/MS system to analyze the metabolites of the substrates simultaneously. Metabolites of each substrate produced during the reaction were analyzed using the Shimadzu Nexera XR system and TSQ vantage (Thermo). Kinetex C18 column (2.1 × 100 mm, 2.6 μm particle size; Phenomenex, USA) was used for HPLC. The mobile phase used contained 0.1% formic acid in distilled water (A) and 0.1% formic acid containing acetonitrile (B). The generated metabolites were quantified using MRM (Multiple Reaction Monitoring) and Xcalibur (version 1.6.1) was used for data analysis.

[22] = target: T12, CYP2C19 (Homo sapiens, UniProt P33261); experiment: CYP inhibition assay; assay type: in vitro ADME; settings: human liver microsomes
T12 construct: Human liver microsomes (0.25 mg/mL); from tissue; host or cells: human liver microsomes
T12 sequence (P33261 whole entry): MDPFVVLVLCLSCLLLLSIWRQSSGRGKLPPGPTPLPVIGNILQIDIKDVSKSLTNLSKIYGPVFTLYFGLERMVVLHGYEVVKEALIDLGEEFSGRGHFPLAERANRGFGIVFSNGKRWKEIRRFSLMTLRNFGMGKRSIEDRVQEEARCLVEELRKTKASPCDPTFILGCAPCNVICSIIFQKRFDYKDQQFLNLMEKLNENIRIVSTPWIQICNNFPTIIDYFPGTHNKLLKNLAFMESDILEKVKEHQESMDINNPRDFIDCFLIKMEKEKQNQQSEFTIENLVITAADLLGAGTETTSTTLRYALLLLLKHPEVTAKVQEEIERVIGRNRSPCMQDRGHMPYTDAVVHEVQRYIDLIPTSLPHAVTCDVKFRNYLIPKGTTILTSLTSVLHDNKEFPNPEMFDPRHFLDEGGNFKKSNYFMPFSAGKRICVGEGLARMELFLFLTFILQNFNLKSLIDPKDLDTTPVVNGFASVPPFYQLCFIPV
Procedure: as §3

[23] = target: T13, CYP2C9 (Homo sapiens, UniProt P11712); experiment: CYP inhibition assay; assay type: in vitro ADME; settings: human liver microsomes
T13 construct: Human liver microsomes (0.25 mg/mL); from tissue; host or cells: human liver microsomes
T13 sequence (P11712 whole entry): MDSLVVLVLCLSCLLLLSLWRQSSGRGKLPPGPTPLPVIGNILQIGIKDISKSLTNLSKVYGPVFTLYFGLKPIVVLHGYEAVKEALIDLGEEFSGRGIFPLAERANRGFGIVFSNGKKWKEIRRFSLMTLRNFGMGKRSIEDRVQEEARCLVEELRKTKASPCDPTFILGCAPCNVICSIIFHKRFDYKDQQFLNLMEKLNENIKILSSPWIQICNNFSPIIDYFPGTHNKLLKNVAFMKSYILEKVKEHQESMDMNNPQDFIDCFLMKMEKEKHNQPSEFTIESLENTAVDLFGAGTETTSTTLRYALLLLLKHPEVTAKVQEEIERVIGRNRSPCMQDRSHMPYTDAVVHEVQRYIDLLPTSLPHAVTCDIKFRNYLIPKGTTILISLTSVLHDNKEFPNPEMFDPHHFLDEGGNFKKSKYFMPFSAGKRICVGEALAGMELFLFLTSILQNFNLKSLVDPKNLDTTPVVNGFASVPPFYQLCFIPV
Procedure: as §3

[24] = tested on: human normal dermal fibroblast cells; experiment: Antiproliferative activity against normal cells; assay type: cell-based; settings: cultured human normal primary dermal fibroblast cells; read-out: IC50 growth inhibition, normal dermal fibroblast cells
[25] = target: T14, DYRK1A (Homo sapiens, UniProt Q13627); experiment: Kinase inhibition profile, KINOMEscan 11-point dose response; assay type: binding
T14 construct: purchased Eurofins DiscoverX Corporation

[26] = 11-point 3-fold serial dilution

C#Cc1cn([C@@H]2S[C@H](CO)[C@@H](O)[C@H]2O)c2ncnc(N)c12 [Compound 1g, (2R,3R,4S,5R)-2-(4-Amino-5-ethynyl-7H-pyrrolo[2,3-d]pyrimidin-7-yl)-5-(hydroxymethyl)tetrahydrothiophene-3,4-diol]
IC50 [1]: ~40 nM
Metabolic Stability (%) [2]: 82.3%
IC50 [3, 26]: 148 nM
Ki ([3]; by Cheng-Prusoff equation): 296 nM
IC50 [4]: 4 nM
IC50 [5]: 30 nM
IC50 [6]: 50 nM
IC50 [7]: 60 nM
IC50 [8]: 50 nM
IC50 [9]: 30 nM
IC50 [10]: > 20000 nM
inhibition at 1 µM [11]: 29%
inhibition at 1 µM [12]: 54%
inhibition at 1 µM [13]: 6%
inhibition at 1 µM [14]: 18%
inhibition at 1 µM [15]: 13%
IC50 [16]: > 20000 nM
IC50 [17, 26]: 33 nM
Ki ([17]; by Cheng-Prusoff equation): 33 nM
IC50 [18]: 70 nM
IC50 [19]: 4 to 60 nM
IC50 [20, 26]: 80 nM
Ki ([20]; by Cheng-Prusoff equation): 80 nM
IC50 [21]: > 20000 nM
IC50 [22]: > 20000 nM
IC50 [23]: > 20000 nM
IC50 [24]: 150 nM
IC50 [25, 26]: 43 nM
Ki ([25]; by Cheng-Prusoff equation): 86 nM
